From patent US20180251425A1, “2,3,5 TRISUBSTITUTED PYRROLE DERIVATIVES AS TOPOISOMERASE INHIBITORS AND THERAPEUTIC USES THEREOF” (UNIVERSITY OF MYSORE, priority 2015, published 2018) come the findings set out here.

For data set [1], the target named is T1, recombinant human DNA topoisomerase IIα (Homo sapiens, UniProt P11388).
T1 construct: purchased TopoGEN; Inc
The experiment in a line: Topoisomerase IIα DNA relaxation assay. The data set is classed as biochemical. Conditions: 0, 10, 25, 50 and 100 μM, supercoiled pBS-SK+ plasmid, 37° C. 30 min, dose dependent. As to the method: The topoisomerase IIα assay was performed, in a reaction mixture containing supercoiled plasmid DNA (pBS-SK+) was isolated using Gen Elute plasmid miniprep kit (Sigma Aldrich), according to manual instructions. ˜200 ng plasmid and two units of recombinant human DNA topoisomerase IIα (TopoGEN. Inc) along with the different concentrations of ASR6 (0, 10, 25, 50 and 100 μM) was added at RT for 5 min; equal amount of DMSO was used as vehicle control. Reaction was carried out at 37° C. for 30 min in a relaxation buffer 1× topo II buffer (50 mM Tris-HCl (pH 8.0), 10 mM NaCl, 10 mM MgCl2, 5 mM ATP, 0.5 mM dithiothreitol and 30 μg BSA/ml) and reactions were terminated by adding 5× stop buffer containing 5% sarkosyl, 0.0025% bromophenol blue, 25% glycerol. The DNA samples were electrophoresed on 1% agarose gel at 45 volts for 4 h with 0.5×TBE (Tris-borate-EDTA). The gels were stained for 30 min in milli Q water containing ethidium bromide (0.5 mg/ml) followed by distaining for 30 min in milli Q water and images were taken. […] VP16 (Topo II inhibitor) were used as positive control (FIG. 6).

Another data set deals with Molt4 cells. Description: Mitochondrial membrane potential assay (JC-1). The data set is classed as cell-based, Human. Conditions: Molt4 cells, 0.1, 0.25 and 0.5 μM, 48 h. As to the method:
Molt4 cells were seeded in 12 well plate (0.5×10^5 cells/ml), treated with different concentration of ASR6 for 48 h, (DMSO treated cells was used as vehicle control), washed with 1× phosphate buffered saline and stained with JC-1 dye (5,5′,6,6′-Tetrachloro-1,1′,3,3′-tetraethylbenzimidazolo carbocyanine iodide (0.5 μg/ml) (Calbiochem, USA) in 1 ml of media, incubated at 37° C. for 30 min. Samples were washed with phosphate buffered saline and finally resuspended the cell pellet in 300 μl of 1× phosphate buffered saline and acquired (FACSVerse™, BD Biosciences, USA) using Cell Quest Pro Software. Minimum of 10,000 cells were acquired per sample and 2, 4-Dinitrophenol (2, 4-DNP) used as positive control. Results were analyzed Flowing Software (Version 2.5) and data were presented.

Another data set relates to Reh. Description: Cytotoxicity (MTT / trypan blue) in Reh cells. The data set is classed as cell-based. Conditions: Homo sapiens, read-out: Cytotoxicity IC 50 in μM (Cell lines) Reh. As to the method: (§1) Human cancer cell lines, K562, MCF7, HeLa and HEK 293T were purchased from National Centre for Cell Science, Pune, India. Cells were grown in RPMI 1640/MEM/DMEM supplemented with 10% heat-inactivated fetal bovine serum (FBS), 100 U/mL of Penicillin, and 100 μg of streptomycin/mL and incubated at 37° C. in a humidified atmosphere containing 5% CO2.
Nalm6, Molt4 and Reh cells were provided by Dr. Sathees C. Raghavan, Department of Biochemistry, IISc, Bangalore. The cells were grown under the similar culture conditions as mentioned above.
The human T cell leukemia cell line Molt4, Human acute lymphoblastic leukemia (ALL) cell line Nalm6, Human acute myelocytic leukemia (AML) cell line Reh, chronic myelogenous leukemia (CML) cell line K562, Human breast adenocarcinoma cell lines like MCF7 and human kidney cell line HEK 293T (Human embryonic kidney cell line) were selected for the purpose of preliminary anticancer screening of newly synthesized compounds (ASR1 to ASR15). To check the cytotoxicity, trypan blue dye exclusion assays, MTT assay were employed as described earlier Further, Cell cycle analysis, Mitochondrial membrane potential, Annexin-V FITC staining assay were also performed in order to understand the mode of cell death after treatment with ASR6. Further, ASR6 was also tested for its ability to inhibit topoisomerase I and II activity in vitro.
Cytotoxic effect of the newly synthesized compounds against leukemic cells was assessed using 3-(4, 5-dimethyl-2-yl02, 5-diphenyl tetrazolium bromide (MTT) assay. After exposure of compound at different concentration (0.01, 0.1, 0.5, 1, 10, 50 and 100 μM) cells were harvested and transferred into 96 well plate, MTT (5 mg/ml) was added and incubate at 37° C. for 4 h and formazan crystals were dissolved by adding solubilizing agent (10% SDS and 50% dimethyl formamide) for 1 h, finally plate was read at 570 nm (Bio-Rad, USA). Results were represented as inhibition of percentage of cell proliferation in bar diagram (n=3) (FIGS. 1 A, C, E and G).
To determine the growth inhibitory activity of the drug, 0.5×10^5 cell/ml were plated in 24 well (Biofil, USA.) in 1 ml of complete medium and treated with various concentration of the compound to test, cells were stained with 0.4% trypan blue and counted on a hemocytometer after treatment with compounds at 48 and 72 h time point. Results were represented as number of viable cells/ml in bar diagram (FIGS. 1 B, D, F, and H) (n=3).

A short description of data set [2]: Cytotoxicity in HEK293T cells. The format is cell-based. Conditions: human, HEK293T cells (human embryonic kidney); read-out: Cytotoxicity IC 50 in μM (Cell lines) HEK293T. As to the method:
as §1
The human T cell leukemia cell line Molt4, Human acute lymphoblastic leukemia (ALL) cell line Nalm6, Human acute myelocytic leukemia (AML) cell line Reh, chronic myelogenous leukemia (CML) cell line K562, Human breast adenocarcinoma cell lines like MCF7 and human kidney cell line HEK 293T (Human embryonic kidney cell line) were selected for the purpose of preliminary anticancer screening of newly synthesized compounds (ASR1 to ASR15). […]
To determine the growth inhibitory activity of the drug, 0.5×10^5 cell/ml were plated in 24 well (Biofil, USA.) in 1 ml of complete medium and treated with various concentration of the compound to test, cells were stained with 0.4% trypan blue and counted on a hemocytometer after treatment with compounds at 48 and 72 h time point. […]

T1 sequence (P11388 whole entry): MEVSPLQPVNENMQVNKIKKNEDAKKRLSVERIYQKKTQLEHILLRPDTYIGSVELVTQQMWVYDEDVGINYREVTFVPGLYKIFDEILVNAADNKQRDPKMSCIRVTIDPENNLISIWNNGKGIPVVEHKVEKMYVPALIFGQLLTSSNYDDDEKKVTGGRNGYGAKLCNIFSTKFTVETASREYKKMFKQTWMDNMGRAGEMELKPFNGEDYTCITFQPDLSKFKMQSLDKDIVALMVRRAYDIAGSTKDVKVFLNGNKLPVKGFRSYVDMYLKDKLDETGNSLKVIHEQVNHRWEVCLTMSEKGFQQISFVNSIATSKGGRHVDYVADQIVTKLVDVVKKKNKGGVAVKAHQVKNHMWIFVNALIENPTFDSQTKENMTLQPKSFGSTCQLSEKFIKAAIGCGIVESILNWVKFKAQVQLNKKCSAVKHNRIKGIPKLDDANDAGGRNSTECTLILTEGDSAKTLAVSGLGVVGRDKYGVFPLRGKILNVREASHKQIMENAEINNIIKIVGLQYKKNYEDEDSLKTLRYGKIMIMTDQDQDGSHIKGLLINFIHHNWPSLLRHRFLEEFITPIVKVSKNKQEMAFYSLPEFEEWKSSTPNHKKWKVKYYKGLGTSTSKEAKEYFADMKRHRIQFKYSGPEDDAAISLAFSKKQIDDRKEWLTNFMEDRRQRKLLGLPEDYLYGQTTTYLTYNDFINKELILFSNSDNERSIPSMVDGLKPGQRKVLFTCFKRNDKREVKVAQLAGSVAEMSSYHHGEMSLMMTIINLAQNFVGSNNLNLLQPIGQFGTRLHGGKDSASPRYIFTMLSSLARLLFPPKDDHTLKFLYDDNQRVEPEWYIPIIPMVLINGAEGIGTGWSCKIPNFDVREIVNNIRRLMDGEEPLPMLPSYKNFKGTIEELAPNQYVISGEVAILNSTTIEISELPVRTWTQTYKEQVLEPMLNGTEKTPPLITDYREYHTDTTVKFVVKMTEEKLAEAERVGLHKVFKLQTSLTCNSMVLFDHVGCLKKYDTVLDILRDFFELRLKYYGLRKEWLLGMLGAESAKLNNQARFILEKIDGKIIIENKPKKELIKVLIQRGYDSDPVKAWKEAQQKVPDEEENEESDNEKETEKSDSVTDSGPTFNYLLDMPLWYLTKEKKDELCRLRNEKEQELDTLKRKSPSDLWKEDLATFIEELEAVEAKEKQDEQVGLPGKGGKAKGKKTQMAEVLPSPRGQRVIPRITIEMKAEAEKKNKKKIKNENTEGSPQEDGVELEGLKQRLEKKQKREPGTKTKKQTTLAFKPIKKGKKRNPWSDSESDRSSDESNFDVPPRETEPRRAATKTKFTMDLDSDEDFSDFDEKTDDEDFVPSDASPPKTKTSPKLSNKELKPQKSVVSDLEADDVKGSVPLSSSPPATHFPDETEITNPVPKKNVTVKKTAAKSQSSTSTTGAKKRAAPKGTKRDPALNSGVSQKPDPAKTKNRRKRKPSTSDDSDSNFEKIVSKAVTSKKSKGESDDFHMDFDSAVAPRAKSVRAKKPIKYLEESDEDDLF

Turning to `CCOC(=O)c1[nH]c(-c2ccc(Cl)cc2)cc1-c1cccnc1` [ASR6, Ethyl 5-(4-chlorophenyl)-3-(pyridin-3-yl)-1H-pyrrole-2-carboxylate], the “Inhibition of topoisomerase IIα activity (DNA relaxation)” value in data set [1] is recorded as “can inhibit topoisomerase Ha enzymatic activity”. Besides, the Mitochondrial membrane potential entry in the data set with Molt4 cells is listed as “reduction in mitochondrial membrane potential”. Further, the results for the IC50 (with Reh; in data set [2]) were 0.36 µM and 0.866 µM, respectively.
